In paper PMC5218480 (PLoS ONE, 2017):

Test system: MV-4-11 cells
Assay: Gene expression microarray analysis (Affymetrix PrimeView) and GSEA
Format: cell-based, human
Parameters: RFU PODN (11730768_x_at) / Fold change /veh PODN (11730768_x_at) / RFU LINC00158 (11744669_a_at) / Fold change /veh LINC00158 (11744669_a_at) / RFU DUSP10 (11751237_a_at) / Fold change /veh DUSP10 (11751237_a_at) / RFU ID3 (11757404_x_at) / Fold change /veh ID3 (11757404_x_at) / RFU PLEKHG5 (11737974_s_at) / Fold change /veh PLEKHG5 (11737974_s_at) / RFU LRRC4B (11730491_at) / Fold change /veh LRRC4B (11730491_at) / RFU GIMAP4 (11747438_a_at) / Fold change /veh GIMAP4 (11747438_a_at) / RFU KRT8 (11758183_x_at) / Fold change /veh KRT8 (11758183_x_at) / RFU CNN1 (11734310_a_at) / Fold change /veh CNN1 (11734310_a_at) / RFU VPS37D (11726825_at) / Fold change /veh VPS37D (11726825_at) / RFU C10orf10 (11716522_x_at) / Fold change /veh C10orf10 (11716522_x_at) / RFU KIR2DL2 /// KIR2DL4 /// KIR2DL5A /// KIR2DL5B /// KIR2DS1 /// KIR2DS2 /// KIR2DS3 /// KIR2DS4 /// KIR3DL3 /// KIR3DL3 /// KIR3DS1 (11738374_at) / Fold change /veh KIR2DL2 /// KIR2DL4 /// KIR2DL5A /// KIR2DL5B /// KIR2DS1 /// KIR2DS2 /// KIR2DS3 /// KIR2DS4 /// KIR3DL3 /// KIR3DL3 /// KIR3DS1 (11738374_at) / RFU C1QL1 (11718748_at) / Fold change /veh C1QL1 (11718748_at) / RFU TMPRSS4 (11747572_a_at) / Fold change /veh TMPRSS4 (11747572_a_at) / RFU HAMP (11756126_x_at) / Fold change /veh HAMP (11756126_x_at) / RFU RNFT2 (11725882_a_at) / Fold change /veh RNFT2 (11725882_a_at) / RFU NR4A2 (11747474_a_at) / Fold change /veh NR4A2 (11747474_a_at) / RFU ABCC12 (11746883_a_at) / Fold change /veh ABCC12 (11746883_a_at) / RFU TMEM136 (11760407_x_at) / Fold change /veh TMEM136 (11760407_x_at) / RFU CLDN22 /// WWC2 (11732394_at) / Fold change /veh CLDN22 /// WWC2 (11732394_at) / RFU HLA-DPB1 (11760878_x_at) / Fold change /veh HLA-DPB1 (11760878_x_at) / RFU SPINT1 (11716480_a_at) / Fold change /veh SPINT1 (11716480_a_at) / RFU GAP43 (11754022_s_at) / Fold change /veh GAP43 (11754022_s_at) / RFU A4GNT (11735810_at) / Fold change /veh A4GNT (11735810_at) / RFU PRB3 (11715151_x_at) / Fold change /veh PRB3 (11715151_x_at) / RFU TUBB4B (11761932_at) / Fold change /veh TUBB4B (11761932_at) / RFU CAPN14 (11732068_a_at) / Fold change /veh CAPN14 (11732068_a_at) / RFU TMCC2 (11721928_a_at) / Fold change /veh TMCC2 (11721928_a_at) / RFU IRGQ (11745062_a_at) / Fold change /veh IRGQ (11745062_a_at) / RFU FAM174B (11720279_a_at) / Fold change /veh FAM174B (11720279_a_at) / RFU TMPRSS4 (11748680_a_at) / Fold change /veh TMPRSS4 (11748680_a_at) / RFU FAM212B (11763350_a_at) / Fold change /veh FAM212B (11763350_a_at) / RFU PLEKHG5 (11743358_a_at) / Fold change /veh PLEKHG5 (11743358_a_at) / RFU ZSCAN30 (11745921_a_at) / Fold change /veh ZSCAN30 (11745921_a_at) / RFU CMKLR1 (11741424_a_at) / Fold change /veh CMKLR1 (11741424_a_at) / RFU LOC101060620 /// MAPK8IP1 (11723275_at) / Fold change /veh LOC101060620 /// MAPK8IP1 (11723275_at) / RFU SPTSSB (11747773_x_at) / Fold change /veh SPTSSB (11747773_x_at) / RFU PRSS12 (11739890_at) / Fold change /veh PRSS12 (11739890_at) / RFU BIN1 (11741810_x_at) / Fold change /veh BIN1 (11741810_x_at) / RFU WNT11 (11732464_a_at) / Fold change /veh WNT11 (11732464_a_at) / RFU C10orf10 (11716521_a_at) / Fold change /veh C10orf10 (11716521_a_at) / RFU C5orf56 (11738089_at) / Fold change /veh C5orf56 (11738089_at) / RFU CYB561 (11721691_x_at) / Fold change /veh CYB561 (11721691_x_at) / RFU ANKRD19P (11752326_a_at) / Fold change /veh ANKRD19P (11752326_a_at) / RFU OR2T12 /// OR2T33 /// OR2T8 (11738714_s_at) / Fold change /veh OR2T12 /// OR2T33 /// OR2T8 (11738714_s_at) / RFU VCAN (11748164_a_at) / Fold change /veh VCAN (11748164_a_at) / RFU JSRP1 (11732532_at) / Fold change /veh JSRP1 (11732532_at) / RFU KRTAP10-11 (11738290_x_at) / Fold change /veh KRTAP10-11 (11738290_x_at) / RFU MYO3A (11730013_a_at) / Fold change /veh MYO3A (11730013_a_at) / RFU EBF3 (11725865_a_at) / Fold change /veh EBF3 (11725865_a_at) / RFU CAMK2N1 (11719241_x_at) / Fold change /veh CAMK2N1 (11719241_x_at) / RFU C5orf56 (11738088_a_at) / Fold change /veh C5orf56 (11738088_a_at) / RFU OLFML3 (11715873_a_at) / Fold change /veh OLFML3 (11715873_a_at) / RFU LOC100653217 /// NTM (11731650_a_at) / Fold change /veh LOC100653217 /// NTM (11731650_a_at) / RFU MAPK11 (11762145_a_at) / Fold change /veh MAPK11 (11762145_a_at) / RFU FIZ1 (11724087_x_at) / Fold change /veh FIZ1 (11724087_x_at) / RFU OASL (11726364_x_at) / Fold change /veh OASL (11726364_x_at) / RFU SOX15 (11748057_x_at) / Fold change /veh SOX15 (11748057_x_at) / RFU CD79A (11719716_a_at) / Fold change /veh CD79A (11719716_a_at) / RFU HIST1H1D (11736915_at) / Fold change /veh HIST1H1D (11736915_at) / RFU CASKIN2 (11723855_a_at) / Fold change /veh CASKIN2 (11723855_a_at) / RFU LOC730098 (11760151_x_at) / Fold change /veh LOC730098 (11760151_x_at) / RFU OR4N2 (11742367_at) / Fold change /veh OR4N2 (11742367_at) / RFU PRRT2 (11749266_a_at) / Fold change /veh PRRT2 (11749266_a_at) / RFU SNX32 (11753110_a_at) / Fold change /veh SNX32 (11753110_a_at) / RFU CDHR5 (11726645_a_at) / Fold change /veh CDHR5 (11726645_a_at) / RFU RCAN1 (11760418_a_at) / Fold change /veh RCAN1 (11760418_a_at) / RFU FAM167A (11723789_a_at) / Fold change /veh FAM167A (11723789_a_at) / RFU FAM26E (11764081_at) / Fold change /veh FAM26E (11764081_at) / RFU ISYNA1 (11749810_s_at) / Fold change /veh ISYNA1 (11749810_s_at) / RFU ACY1 (11761880_at) / Fold change /veh ACY1 (11761880_at) / RFU 11764098_at / Fold change /veh 11764098_at / RFU SAMD14 (11745864_x_at) / Fold change /veh SAMD14 (11745864_x_at) / RFU NPB (11741838_a_at) / Fold change /veh NPB (11741838_a_at) / RFU TMPRSS6 (11731388_a_at) / Fold change /veh TMPRSS6 (11731388_a_at) / RFU KRTAP10-2 (11738614_at) / Fold change /veh KRTAP10-2 (11738614_at) / RFU ARHGAP8 /// PRR5-ARHGAP8 (11727945_x_at) / Fold change /veh ARHGAP8 /// PRR5-ARHGAP8 (11727945_x_at) / RFU KRTAP5-7 /// NADSYN1 (11734609_at) / Fold change /veh KRTAP5-7 /// NADSYN1 (11734609_at) / RFU RASL12 (11751679_a_at) / Fold change /veh RASL12 (11751679_a_at) / RFU CDKN2B (11736163_a_at) / Fold change /veh CDKN2B (11736163_a_at) / RFU PRF1 (11729649_at) / Fold change /veh PRF1 (11729649_at) / RFU, ZNF638 /// ZNF638-IT1 / Fold change vs veh, ZNF638 /// ZNF638-IT1 / RFU, PANK3 / Fold change vs veh, PANK3 / RFU, SH3YL1 / Fold change vs veh, SH3YL1 / RFU, ZEB2 / Fold change vs veh, ZEB2 / RFU, NRIP1 / Fold change vs veh, NRIP1 / RFU, PTTG1IP / Fold change vs veh, PTTG1IP / RFU, CAPN2 / Fold change vs veh, CAPN2 / RFU, MED14 / Fold change vs veh, MED14 / RFU, SNORA58 / Fold change vs veh, SNORA58 / RFU, C1orf63 / Fold change vs veh, C1orf63 / RFU, LRRFIP1 / Fold change vs veh, LRRFIP1 / RFU, NDUFAF7 / Fold change vs veh, NDUFAF7 / RFU, SLC12A2 / Fold change vs veh, SLC12A2 / RFU, IBTK / Fold change vs veh, IBTK / RFU, ESF1 / Fold change vs veh, ESF1 / Fold change vs veh, TMEM50B / RFU, TAOK1 / Fold change vs veh, TAOK1 / RFU, ACBD3 / Fold change vs veh, ACBD3 / RFU, TMA16 / Fold change vs veh, TMA16 / RFU, RWDD3 / Fold change vs veh, RWDD3 / RFU, BCAT1 / Fold change vs veh, BCAT1 / RFU, EDEM3 / Fold change vs veh, EDEM3 / RFU, TMEM33 / Fold change vs veh, TMEM33 / RFU, WDR75 / Fold change vs veh, WDR75 / RFU, AHCTF1 / Fold change vs veh, AHCTF1 / RFU, TFRC / Fold change vs veh, TFRC / RFU, ZDHHC17 / Fold change vs veh, ZDHHC17 / RFU, NOM1 / Fold change vs veh, NOM1 / RFU, ARL8B / Fold change vs veh, ARL8B / RFU, ZBTB11 / Fold change vs veh, ZBTB11 / RFU, TAMM41 / Fold change vs veh, TAMM41 / RFU, KIAA1704 /// LOC100996395 / Fold change vs veh, KIAA1704 /// LOC100996395 / RFU, ING1 / Fold change vs veh, ING1 / RFU, TRMT61B / Fold change vs veh, TRMT61B / RFU, FUBP3 / Fold change vs veh, FUBP3 / RFU, TP53 / Fold change vs veh, TP53 / RFU, TNKS2 / Fold change vs veh, TNKS2 / RFU, ZFP14 / Fold change vs veh, ZFP14 / RFU, ACTR2 / Fold change vs veh, ACTR2 / RFU, PPP3R1 / Fold change vs veh, PPP3R1 / RFU, PIK3R1 / Fold change vs veh, PIK3R1 / RFU, HNRNPA1 / Fold change vs veh, HNRNPA1 / RFU, RNF170 / Fold change vs veh, RNF170 / RFU, ZNF28 / Fold change vs veh, ZNF28 / RFU, RNGTT / Fold change vs veh, RNGTT / RFU, OGT / Fold change vs veh, OGT / RFU, BRD1 / Fold change vs veh, BRD1 / RFU, MARS / Fold change vs veh, MARS / RFU, ZNF655 / Fold change vs veh, ZNF655 / RFU, FAHD1 / Fold change vs veh, FAHD1 / RFU, BDP1 / Fold change vs veh, BDP1 / RFU, LRRCC1 / Fold change vs veh, LRRCC1 / RFU, ARID1A / Fold change vs veh, ARID1A / RFU, ZNF146 / Fold change vs veh, ZNF146 / RFU, ZNF330 / Fold change vs veh, ZNF330 / RFU, GPN3 / Fold change vs veh, GPN3 / RFU, C9orf123 / Fold change vs veh, C9orf123 / RFU, N4BP2L2 / Fold change vs veh, N4BP2L2 / RFU, ARFIP1 / Fold change vs veh, ARFIP1 / RFU, FAM179B / Fold change vs veh, FAM179B / RFU, BCL10 / Fold change vs veh, BCL10 / RFU, UHRF1BP1L / Fold change vs veh, UHRF1BP1L / RFU, BET1 / Fold change vs veh, BET1 / RFU, CNOT2 / Fold change vs veh, CNOT2 / RFU, ZNF268 / Fold change vs veh, ZNF268 / Fold change vs veh, ZNF507 / RFU, DGCR2 / Fold change vs veh, DGCR2 / RFU, WDSUB1 / Fold change vs veh, WDSUB1 / Fold change vs veh, HSP90B1 /// MIR3652 / RFU, ADSS / Fold change vs veh, ADSS / RFU, GK / Fold change vs veh, GK / RFU, ZNF148 / Fold change vs veh, ZNF148 / RFU, TAF9 / Fold change vs veh, TAF9 / RFU, SLC1A5 / Fold change vs veh, SLC1A5 / RFU, SLMO2 / Fold change vs veh, SLMO2 / RFU, ABCC4 / Fold change vs veh, ABCC4 / RFU, LOC101060439 /// RAP1B / Fold change vs veh, LOC101060439 /// RAP1B / RFU, RFX7 / Fold change vs veh, RFX7 / RFU, GTPBP10 / Fold change vs veh, GTPBP10 / RFU, CNEP1R1 / Fold change vs veh, CNEP1R1 / RFU, BIVM-ERCC5 /// ERCC5 / Fold change vs veh, BIVM-ERCC5 /// ERCC5 / RFU, ILF3 / Fold change vs veh, ILF3 / RFU 11762660_at / Fold change /veh 11762660_at / RFU VCAN (11757783_s_at) / Fold change /veh VCAN (11757783_s_at) / RFU DDX43 (11728927_at) / Fold change /veh DDX43 (11728927_at) / RFU KRT8 (11758188_x_at) / Fold change /veh KRT8 (11758188_x_at) / RFU NKD1 (11759106_at) / Fold change /veh NKD1 (11759106_at) / RFU SRD5A1 (11742802_a_at) / Fold change /veh SRD5A1 (11742802_a_at) / RFU TPSAB1 /// TPSB2 (11721975_s_at) / Fold change /veh TPSAB1 /// TPSB2 (11721975_s_at) / RFU GSTM3 (11746129_a_at) / Fold change /veh GSTM3 (11746129_a_at) / RFU IL23R (11737362_x_at) / Fold change /veh IL23R (11737362_x_at) / RFU TMEM51 (11727254_a_at) / Fold change /veh TMEM51 (11727254_a_at) / RFU PIWIL2 (11732686_x_at) / Fold change /veh PIWIL2 (11732686_x_at) / RFU ORM1 (11744905_x_at) / Fold change /veh ORM1 (11744905_x_at) / RFU CCDC152 (11743942_at) / Fold change /veh CCDC152 (11743942_at) / RFU ECM1 (11717891_a_at) / Fold change /veh ECM1 (11717891_a_at) / RFU IL23R (11748794_a_at) / Fold change /veh IL23R (11748794_a_at) / RFU TNFAIP8L3 (11732012_x_at) / Fold change /veh TNFAIP8L3 (11732012_x_at) / RFU MBOAT4 (11741988_at) / Fold change /veh MBOAT4 (11741988_at) / RFU 11764193_at / Fold change /veh 11764193_at / RFU TMEM53 (11763286_at) / Fold change /veh TMEM53 (11763286_at) / RFU MAGEB2 (11727129_at) / Fold change /veh MAGEB2 (11727129_at) / RFU TMEM200A (11744735_a_at) / Fold change /veh TMEM200A (11744735_a_at) / RFU CCDC152 (11751479_a_at) / Fold change /veh CCDC152 (11751479_a_at) / RFU FAM211A (11726209_a_at) / Fold change /veh FAM211A (11726209_a_at) / RFU RGS16 (11746705_a_at) / Fold change /veh RGS16 (11746705_a_at) / RFU VCAN (11755009_s_at) / Fold change /veh VCAN (11755009_s_at) / RFU RHOB (11743442_s_at) / Fold change /veh RHOB (11743442_s_at) / RFU RGS16 (11720943_a_at) / Fold change /veh RGS16 (11720943_a_at) / RFU RGS16 (11720944_at) / Fold change /veh RGS16 (11720944_at) / RFU, VPS4B / Fold change vs veh, VPS4B / RFU, CREB1 / Fold change vs veh, CREB1 / RFU, DNAJC13 / Fold change vs veh, DNAJC13 / RFU, GNAQ / Fold change vs veh, GNAQ / RFU, CDK5R1 / Fold change vs veh, CDK5R1 / RFU, ZRANB3 / Fold change vs veh, ZRANB3 / RFU, CUL4A / Fold change vs veh, CUL4A / RFU, CCNY / Fold change vs veh, CCNY / RFU, UFL1 / Fold change vs veh, UFL1 / RFU, COG3 / Fold change vs veh, COG3 / RFU, DIAPH2 / Fold change vs veh, DIAPH2 / RFU, SKA2 / Fold change vs veh, SKA2 / RFU, AFF3 / Fold change vs veh, AFF3 / RFU, LMF1 / Fold change vs veh, LMF1 / RFU, IPO11 / Fold change vs veh, IPO11 / RFU, DFFB / Fold change vs veh, DFFB / RFU, FOXP1 / Fold change vs veh, FOXP1 / RFU, CARD8 / Fold change vs veh, CARD8 / RFU, STRN3 / Fold change vs veh, STRN3 / RFU, ADK / Fold change vs veh, ADK / RFU, RASSF2 / Fold change vs veh, RASSF2 / RFU, WIPF1 / Fold change vs veh, WIPF1 / RFU, LARP1B / Fold change vs veh, LARP1B / RFU, RASA1 / Fold change vs veh, RASA1 / RFU, RB1 / Fold change vs veh, RB1 / RFU, PPFIA1 / Fold change vs veh, PPFIA1 / RFU, MAT2A / Fold change vs veh, MAT2A / RFU, CCT5 / Fold change vs veh, CCT5 / RFU, WDR92 / Fold change vs veh, WDR92 / RFU, CUX1 / Fold change vs veh, CUX1 / RFU, TTC7A / Fold change vs veh, TTC7A / RFU, TMEM135 / Fold change vs veh, TMEM135 / RFU, DEPTOR / Fold change vs veh, DEPTOR / RFU, CPM / Fold change vs veh, CPM / RFU, DNAJB6 / Fold change vs veh, DNAJB6 / RFU, CACNA2D3 / Fold change vs veh, CACNA2D3 / RFU, DTX4 / Fold change vs veh, DTX4 / RFU, TFCP2 / Fold change vs veh, TFCP2 / RFU, GMCL1 /// GMCL1P1 / Fold change vs veh, GMCL1 /// GMCL1P1 / RFU, AEBP2 / Fold change vs veh, AEBP2 / RFU, SNHG1 /// SNORD22 /// SNORD25 /// SNORD26 /// SNORD27 /// SNORD28 /// SNORD29 /// SNORD31 / Fold change vs veh, SNHG1 /// SNORD22 /// SNORD25 /// SNORD26 /// SNORD27 /// SNORD28 /// SNORD29 /// SNORD31 / Fold change (Aza/veh), C12orf56 (ProbeSet 11735607_a_at) / Fold change (ACY-1035/veh), C12orf56 (ProbeSet 11735607_a_at) / Fold change (Aza/veh), FGFR1OP (ProbeSet 11751329_s_at) / Fold change (ACY-1035/veh), FGFR1OP (ProbeSet 11751329_s_at) / Fold change (Aza/veh), VPS36 (ProbeSet 11739960_a_at) / Fold change (ACY-1035/veh), VPS36 (ProbeSet 11739960_a_at) / RFU SYPL1 (11715823_x_at) / Fold change /veh SYPL1 (11715823_x_at) / RFU IGFBP7 (11715501_s_at) / Fold change /veh IGFBP7 (11715501_s_at) / RFU REEP3 (11722064_at) / Fold change /veh REEP3 (11722064_at) / RFU IGLL1 (11728026_x_at) / Fold change /veh IGLL1 (11728026_x_at): dose or concentration left out as unconfirmed
Details: gene VPS36; ACY-1035 vs DMSO; LIST F

Nc1ccc(-c2cccs2)cc1NC(=O)c1ccc2c(c1)cc(C1CC1)n2CCN1CCOCC1 [ACY-1035]
Fold change (ACY-1035/veh), VPS36 (ProbeSet 11739960_a_at): 0.53
